Measured values: article PMC11083148, “Structure–Activity Relationship Studies on Highly Functionalized Pyrazole Hydrazones and Amides as Antiproliferative and Antioxidant Agents” (International Journal of Molecular Sciences, 2024)
Blank lines part the entries; values can stand above or below the compound they belong to.

Key:
HeLa = test: MTT assay, antiproliferative activity; type: cell-based; conditions: Homo sapiens, 10 µM, 48h, read-out: Mean Growth Percentage
Procedure: (§1) Pyrazole acylhydrazones 10–13 and amides 14–22 were tested by MTT assay to evaluate their antiproliferative and cytotoxicity properties against a panel of eight tumor cell lines and normal fibroblasts.
(§2) All reagents were purchased from EuroClone, Milan, Italy). The following cell lines were used for MTT assays: SKOV-3 (ovarian adenocarcinoma, ATCC, Manassas, VA, USA); MCF-7 (breast adenocarcinoma, Biologic Bank and Cell Factory, IRCCS Policlinico San Martino, Genoa, Italy); Hep-G2 (hepatocellular carcinoma, ATCC, Manassas, VA, USA); SK-MEL28 (skin melanoma, Biologic Bank and Cell Factory, IRCCS Policlinico San Martino, Genoa, Italy), GM-6114 (embryonic human fibroblast, ATCC, Manassas, VA, USA); MDA-MB231 (breast adenocarcinoma, Biologic Bank and Cell Factory, IRCCS Policlinico San Martino, Genoa, Italy); HeLa (cervical adenocarcinoma, Biologic Bank and Cell Factory, IRCCS Policlinico San Martino, Genoa, Italy); SK-BR3 (breast andenocarcinoma, Biologic Bank and Cell Factory, IRCCS Policlinico San Martino, Genoa, Italy); A549 (lung carcinoma, Biologic Bank and Cell Factory, IRCCS Policlinico San Martino, Genoa, Italy); HUVEC (Human Umbilical Vein Endothelial Cells, ATCC, Manassas, VA, USA). All cell lines were grown in their medium with 10% FBS, 2 mM Glutamine, and 1% penstrep and incubated at 37 °C in 5% CO2 in a humidified environment. The cell lines were plated in 96-well plates at an adequate number to reach 80–90% confluence at the end of the assay. 16 h after cell plating, a 10 mM DMSO stock solution of the compounds was diluted in growth medium and added at a final working concentration of 10 μM. After 48h of incubation, a 2 mg/mL PBS solution of MTT (3-(4,5-dimethyl-2-thiazolyl)-2,5-diphenyl-2H-tetrazolium bromide) was added (30 μL/well). After 4h, the supernatant was removed, and the Formazan precipitates were dissolved in DMSO (100 μL/well). The 96-well plates were incubated for 20 min, and absorbance was measured at 570 nm using a plate reader. The results are expressed as a percentage ratio over control samples (100%) in which the cells were incubated with the same amount of DMSO but without compounds. Each value is the mean of three independent experiments run in six replicates.
(§3) Each IC50 value is the mean of three independent experiments run in duplicate.

SKMEL28 = test: MTT assay, antiproliferative activity; type: cell-based; conditions: Homo sapiens, SK-MEL-28, 10 µM, 48h
Procedure: as §1, §2, §3

SKOV3 = test: MTT assay, antiproliferative activity; type: cell-based; conditions: Homo sapiens, SK-OV-3, 10 µM, 48h
Procedure: as §1, §2, §3

MCF7 = test: MTT assay, antiproliferative activity; type: cell-based; conditions: Homo sapiens, 10 µM, 48h
Procedure: as §1, §2, §3

GM-6114 = test: MTT assay, cytotoxicity on normal fibroblasts; type: cell-based; conditions: human, 48 h, 10 µM
MDA-MB231 = test: MTT assay, antiproliferative activity; type: cell-based; conditions: Homo sapiens, MDA-MB-231, 48h
Procedure: as §1, §2

SK-BR3 = test: MTT assay, antiproliferative activity; type: cell-based; conditions: Homo sapiens, SK-BR-3, 48h
Procedure: as §1, §2

A549 = test: MTT assay, antiproliferative activity; type: cell-based; conditions: Homo sapiens, 48h, read-out: Mean Growth Percentage
Procedure: as §1, §2

Hep-G2 = test: MTT assay, antiproliferative activity; type: cell-based; conditions: Homo sapiens, HepG2, 48h
Procedure: as §1, §2

washed platelets [1] = test: ROS assay in platelets (DCFH-DA, thrombin-stimulated); type: cell-based, human; conditions: Homo sapiens, Platelet, 0.1 U/mL thrombin, mean ± SD, read-out: IC50 ROS production inhibition
Procedure: (§4) The antioxidant properties of acylhydrazones 10–13 and pyrazolyl amides 14–22 were tested by evaluating their inhibition of platelet aggregation and ROS production (Figure 3, Table S1). In fact, human platelets could represent a fast and low-cost biological model to screen compounds as anticancer, anti-inflammatory, and antiaggregating agents. Moreover, ROS production inhibition, related to human platelet aggregation, could provide a good indication of the anti-inflammatory and antioxidant properties of the newly synthesized compounds [47, 50, 51, 52]. N-acetylcysteine (NAC) and acetyl salicylic acid (ASA) were used as reference drugs for antioxidant and antiaggregant activities, respectively.
(§5) Freshly drawn venous blood from healthy volunteers from “Centro Trasfusionale” (IRCCS Policlinico San Martino, Genoa, Italy) was collected into a 130 mM aqueous trisodium citrate anticoagulant solution (9:1). The donors claimed to not have taken drugs known to interfere with platelet function during the two weeks prior to blood collection and gave their informed consent. Whole blood was centrifuged at 100× g for 20 min to afford platelet-rich plasma that was then spun at 1100× g for 15 min. The obtained pellet was washed once with a pH 5.2 ACD solution (75 mM trisodium citrate, 42 mM citric acid, and 136 mM glucose), centrifuged at 1100× g for 15 min, and then re-suspended in pH 7.4 Hepes buffer (145 mM NaCl, 5 mM KCl, 1 mM MgSO4, 10 mM glucose, and 10 mM HEPES).
2′,7′-Dichlorofluorescein diacetate (DCFH-DA) and thrombin were purchased from Sigma-Aldrich/Merck Millipore. DMSO solutions of 10–22 were diluted in saline immediately before each experiment. ROS production was quantified by DCFH-DA, a ROS-sensitive probe that yields, upon oxidation, the fluorescent adduct DCF that is trapped inside the cells. Briefly, washed platelets (1.0 × 10^8/mL), pre-incubated with saline solutions of 10–22 for 15 min at 37 °C, were stimulated by 0.1 U/mL thrombin. Incubation was stopped by cooling samples in an ice bath, and then samples were immediately analyzed in a Merck Millipore Bioscience Guava easyCyte flow cytometer (Merk Millipore, Burlington, MA, USA). The reported IC50 values represent the molar concentration of the compounds able to inhibit 50% of the maximal aggregation induced by the agonist and are calculated as the percentage inhibition of the maximal aggregation measured in the presence of the agent compared with the measure in a control sample containing saline, carried out under the same conditions. The IC50 values were extrapolated from nonlinear regression analysis of concentration–response curves (three points) using MS Excel software (Microsoft 365 suite). Each IC50 value is the mean of six independent experiments.

washed platelets [2] = test: Platelet aggregation (thrombin-induced, Born's method); type: cell-based; conditions: Homo sapiens, 0.1 U/mL thrombin, mean ± SD, read-out: IC50 Aggregation inhibition
Procedure: as §4, §5
Thrombin was purchased from Sigma-Aldrich/Merck Millipore. A DMSO solution of compounds 10–22 was diluted in saline immediately before each experiment and added to the washed platelets (3.0 × 10^8/mL) at 37 °C. After 3 min, 0.1 U/mL thrombin was added, and platelet aggregation was quantified according to Born’s method using a Bio-Data Aggregometer (Bio-Data Corporation, Horsham, PA, USA). The IC50 values were calculated as detailed above.

IC50 (washed platelets [1]): 310 ± 24 µM
IC50 (washed platelets [2]): 292 ± 28 µM
melting point: 143 to 145 °C
Structure (SMILES): CCOC(=O)c1c(NC(=O)c2ccc(OC)c(OC)c2)n[nH]c1Nc1ccccc1 [compound 16, Ethyl 3-(3,4-dimethoxybenzamido)-5-(phenylamino)-1H-pyrazole-4-carboxylate]
activity at 10 µM (HeLa): 57.6%
Mean growth percentage at 10 µM (SKMEL28): 54%
Mean growth percentage at 10 µM (SKOV3): 66.9%
mean growth percentage (cell growth remaining vs control) at 10 µM (MCF7): 62.4%
Mean Growth Percentage (GM-6114): 53.68%
Mean growth percentage at 10 µM (MDA-MB231): 96%
Mean growth percentage at 10 µM (SK-BR3): 82.5%
activity at 10 µM (A549): 52.6%
Mean growth percentage at 10 µM (Hep-G2): 49.1%

IC50 (washed platelets [1]): 293 ± 18 µM
IC50 (washed platelets [2]): 294 ± 26 µM
melting point: 143 to 145 °C
Structure (SMILES): CCOC(=O)c1c(NC(=O)c2ccc(OC)cc2)nn(C)c1Nc1ccccc1 [compound 19, Ethyl 3-(4-Methoxybenzamido)-1-methyl-5-(phenylamino)-1H-pyrazole-4-carboxylate]
activity at 10 µM (HeLa): 124%
Mean growth percentage at 10 µM (SKMEL28): 85.2%
Mean growth percentage at 10 µM (SKOV3): 97.3%
mean growth percentage (cell growth remaining vs control) at 10 µM (MCF7): 95.2%
Mean Growth Percentage (GM-6114): 66.69%
Mean growth percentage at 10 µM (MDA-MB231): 136%
Mean growth percentage at 10 µM (SK-BR3): 103%
activity at 10 µM (A549): 92.9%
Mean growth percentage at 10 µM (Hep-G2): 105%

IC50 (washed platelets [1]): 289 ± 27 µM
IC50 (washed platelets [2]): 301 ± 24 µM
melting point: 158 to 160 °C
Structure (SMILES): CCOC(=O)c1c(NC(=O)c2c(OC)cccc2OC)nn(C)c1Nc1ccccc1 [compound 20, Ethyl 3-(2,6-dimethoxybenzamido)-1-methyl-5-(phenylamino)-1H-pyrazole-4-carboxylate]
activity at 10 µM (HeLa): 111%
Mean growth percentage at 10 µM (SKMEL28): 83.6%
Mean growth percentage at 10 µM (SKOV3): 84.4%
mean growth percentage (cell growth remaining vs control) at 10 µM (MCF7): 92.1%
Mean Growth Percentage (GM-6114): 64.71%
Mean growth percentage at 10 µM (MDA-MB231): 124%
Mean growth percentage at 10 µM (SK-BR3): 106%
activity at 10 µM (A549): 70.8%
Mean growth percentage at 10 µM (Hep-G2): 108%

IC50 (washed platelets [1]): 262 ± 13 µM
IC50 (washed platelets [2]): 278 ± 27 µM
melting point: 186 to 187 °C
Structure (SMILES): CCOC(=O)c1c(NC(=O)c2ccc(OC)c(OC)c2)nn(C)c1Nc1ccccc1 [compound 21, Ethyl 3-(3,4-dimethoxybenzamido)-1-methyl-5-(phenylamino)-1H-pyrazole-4-carboxylate]
activity at 10 µM (HeLa): 108%
Mean growth percentage at 10 µM (SKMEL28): 84.6%
Mean growth percentage at 10 µM (SKOV3): 90.2%
mean growth percentage (cell growth remaining vs control) at 10 µM (MCF7): 90.3%
Mean Growth Percentage (GM-6114): 85.88%
Mean growth percentage at 10 µM (MDA-MB231): 149%
Mean growth percentage at 10 µM (SK-BR3): 107%
activity at 10 µM (A549): 112%
Mean growth percentage at 10 µM (Hep-G2): 97.9%

Further lines, the compound ahead of its results:

Structure (SMILES): COc1ccc(/C=N/NC(=O)c2c(Nc3ccccc3)nn(CC(O)c3ccccc3)c2N)cc1Oc1ccccc1 (stereo not drawn) [13c, (E)-5-amino-1-(2-hydroxy-2-phenylethyl)-N′-(4-methoxy-3-phenoxybenzylidene)-3-(phenylamino)-1H-pyrazole-4-carbohydrazide]
activity at 10 µM (HeLa): 97.9%
Mean growth percentage at 10 µM (SKMEL28): 104%
Mean growth percentage at 10 µM (SKOV3): 129%
mean growth percentage (cell growth remaining vs control) at 10 µM (MCF7): 99.8%
Mean Growth Percentage (GM-6114): 99.14%
Mean growth percentage at 10 µM (MDA-MB231): 104%
Mean growth percentage at 10 µM (SK-BR3): 87.5%
activity at 10 µM (A549): 94.4%
Mean growth percentage at 10 µM (Hep-G2): 125%
IC50 (washed platelets [1]): 209 ± 15 µM
IC50 (washed platelets [2]): 313 ± 29 µM
melting point: 144 to 145 °C

Structure (SMILES): COc1ccc(/C=N/NC(=O)c2c(Nc3ccccc3)nn(C)c2N)cc1OC [12b, (E)-5-amino-N′-(3,4-dimethoxybenzylidene)-1-methyl-3-(phenylamino)-1H-pyrazole-4-carbohydrazide]
activity at 10 µM (HeLa): 92.8%
Mean growth percentage at 10 µM (SKMEL28): 73.3%
Mean growth percentage at 10 µM (SKOV3): 98.6%
mean growth percentage (cell growth remaining vs control) at 10 µM (MCF7): 101%
Mean Growth Percentage (GM-6114): 99.78%
Mean growth percentage at 10 µM (MDA-MB231): 91.7%
Mean growth percentage at 10 µM (SK-BR3): 94.2%
activity at 10 µM (A549): 95.3%
Mean growth percentage at 10 µM (Hep-G2): 92.7%
IC50 (washed platelets [1]): 106 ± 9 µM
IC50 (washed platelets [2]): 187 ± 16 µM
melting point: 104 to 106 °C

Structure (SMILES): COc1ccc(/C=N/NC(=O)c2c(Nc3ccccc3)nn(CC(O)c3ccccc3)c2N)cc1OC (stereo not drawn) [13b, (E)-5-amino-N′-(3,4-dimethoxybenzylidene)-1-(2-hydroxy-2-phenylethyl)-3-(phenylamino)-1H-pyrazole-4-carbohydrazide]
activity at 10 µM (HeLa): 98.8%
Mean growth percentage at 10 µM (SKMEL28): 95.7%
Mean growth percentage at 10 µM (SKOV3): 114%
mean growth percentage (cell growth remaining vs control) at 10 µM (MCF7): 101%
Mean Growth Percentage (GM-6114): 106.86%
Mean growth percentage at 10 µM (MDA-MB231): 92.1%
Mean growth percentage at 10 µM (SK-BR3): 92.2%
activity at 10 µM (A549): 104%
Mean growth percentage at 10 µM (Hep-G2): 106%
IC50 (washed platelets [1]): 433 ± 32 µM
IC50 (washed platelets [2]): 909 ± 87 µM
melting point: 158 to 159 °C

Structure (SMILES): COc1ccc(/C=N/NC(=O)c2c(N)n[nH]c2Nc2ccccc2)cc1 [10a, (E)-3-amino-N′-(4-methoxybenzylidene)-5-(phenylamino)-1H-pyrazole-4-carbohydrazide]
activity at 10 µM (HeLa): 98.4%
Mean growth percentage at 10 µM (SKMEL28): 86.7%
Mean growth percentage at 10 µM (SKOV3): 104%
mean growth percentage (cell growth remaining vs control) at 10 µM (MCF7): 95.1%
Mean Growth Percentage (GM-6114): 110.40%
Mean growth percentage at 10 µM (MDA-MB231): 99.1%
Mean growth percentage at 10 µM (SK-BR3): 95.5%
activity at 10 µM (A549): 103%
Mean growth percentage at 10 µM (Hep-G2): 115%
IC50 (washed platelets [1]): 111 ± 9 µM
IC50 (washed platelets [2]): 204 ± 12 µM
melting point: 227 to 232 °C
